Experimental data from patent US20250163029A1, “PYRIDONE OR PYRIMIDONE DERIVATIVE AND APPLICATION THEREOF” (Medshine Discovery Inc., priority 2022, published 2025).
pEC50: −log10 of the molar value. Structures can show the parent of a compound that is named as a salt.

Assays:
in vivo [1] = assay: in vivo; design: species or system Sprague-Dawley strain rats; conditions: Sprague-Dawley, rat
Description: (§1) Objective of assay: The druggability of compounds was evaluated by measuring their pharmacokinetic properties in different animal species.
(§2) Assay Materials: C57BL6/J strain mice, Sprague-Dawley strain rats and beagle dogs.
(§3) The pharmacokinetic characteristics of the compound after intravenous and oral administration were assayed in animals using a standard protocol. In the assay, the candidate compound was prepared into a clear solution (intravenous injection) or a homogeneous suspension (oral administration) and administrated to the animal once. Whole blood samples were collected within 24 hours, and centrifuged at 3200 g for 10 minutes. The supernatant was separated to obtain a plasma sample. The blood concentration was quantitatively analyzed by LC-MS/MS analysis method, and pharmacokinetic parameters such as peak concentration, time to peak, clearance rate, half-life, and area under the drug-time curve were calculated.

plasma protein [2] = assay: Plasma protein binding rate (PPB), SD rats; format: in vitro ADME; conditions: 2 μM, 4 hours dialysis
Description: (§4) 597 μL of blank plasma from CD-1 mice, SD rats, beagle dogs, cynomolgus monkeys and humans were weighed, and the working solution of the assay compound or the working solution of warfarin was added, so that the final concentration of the assay compound and warfarin in the plasma sample was 2 μM. The samples were mixed thoroughly. The final concentration of DMSO as an organic phase was 0.5%; 50 μL of the assay compound and warfarin plasma samples were pipetted into a sample receiving plate, and the corresponding volume of blank plasma or buffer was immediately added, so that the final volume of each sample well was 100 μL, and the volume ratio of plasma:dialysis buffer was 1:1, and then the stop solution was added to these samples. The samples were used as the To sample for recovery and stability determination. The assay compound and warfarin plasma samples were added to the dosing end of each dialysis well, and blank dialysis buffer was added to the receiving end corresponding to the dialysis well. Then the dialysis plate was sealed with a gas permeable membrane and placed in a humidified 5% CO2 incubator, and incubated with shaking at 37° C. and 100 rpm for 4 hours. […] After protein precipitation, all samples were analyzed by LC/MS/MS, and the free rate (% Unbound) of the compound was calculated by the following formula: […]

[3] = system: novel coronavirus βCoV/KOR/KCDC03/2020 strain; assay: In vitro anti-novel coronavirus activity in Vero cells; format: cell-based, SARS-CoV-2; conditions: Severe acute respiratory syndrome coronavirus 2, Vero, 24 h
coronavirus OC43 = assay: Efficacy on suckling mice infected with coronavirus; format: in vivo, Suckling mice (C57BL6/J strain); conditions: intraperitoneal, once a day day 0 to day 6
Description: Objective of assay: The in vivo antiviral activity of the compound against coronavirus was evaluated by observing the percentage of weight change and survival rate of the assay animals in a suckling mouse model infected with coronavirus (COV). The mouse infection model is widely used to determine the protective effect of the compound on virus-infected animals to reflect the antiviral activity of the compound.
Suckling mice (C57BL6/J strain) were inoculated with virus (coronavirus OC43) by intranasal drops on day 0, with an inoculation dose of 3500 p.f.u./mouse. From day 0 to day 6, the mice were treated with a vehicle (5% DMSO+40% polyethylene glycol 400+55% water) or 12.5 mpk or 25 mpk of the compound of the present disclosure for 7 consecutive days, once a day, by intraperitoneal injection, for a total of 7 times, with the first administration time being 2 hours before virus inoculation. The animals were continuously observed from day 0 to day 14, and the body weight, health and survival status were recorded.

plasma protein [4] = assay: Plasma protein binding rate (PPB), humans; format: in vitro ADME; conditions: Human plasma, 2 μM, 4 hours dialysis
Description: as §4

in vivo [5] = assay: in vivo; design: species or system beagle dogs; conditions: beagle, dog
Description: as §1, §2, §3

Question: What does the source list for `Cn1cnc(Cc2cn(Cc3cc(F)c(F)cc3F)c(Nc3cc4cn(C)nc4cc3Cl)nc2=O)n1` [Compound 4 hydrochloride]?
Answer: Vd (in vivo [1]; iv, 0.25 mg/kg): 0.62 L/kg; clearance (in vivo [1]; iv, 0.25 mg/kg): 0.246 L/h/kg; half-life (in vivo [1]; iv, 0.25 mg/kg): 2.2 h; AUC (in vivo [1]; iv, 0.25 mg/kg, AUC): 2400 nM·h; AUC (in vivo [1]; iv, 0.25 mg/kg, AUCfree): 110 nM·h; Cmax (in vivo [1]; po, 0.5 mg/kg): 0.53 µM; Tmax (in vivo [1]; po, 0.5 mg/kg): 2 h; bioavailability (in vivo [1]; po, 0.5 mg/kg): 103%; half-life (in vivo [1]; po, 0.5 mg/kg): 3.4 h; AUC (in vivo [1]; po, 0.5 mg/kg, AUC): 4800 nM·h; AUC (in vivo [1]; po, 0.5 mg/kg, AUCfree): 220 nM·h; PPB_Unbound (%) (plasma protein [2]): 4.5%; pEC50 [3]: 7.28; Survival rate (coronavirus OC43; 12.5 mpk, Day 1): 100%; Weight changes (Percent of starting body weight) (coronavirus OC43; 12.5 mpk, Day 1): 5.35 ± 0.58% of starting body weight; Survival rate (coronavirus OC43; 12.5 mpk, Day 2): 100%; Weight changes (Percent of starting body weight) (coronavirus OC43; 12.5 mpk, Day 2): 14.57 ± 1.37% of starting body weight; Survival rate (coronavirus OC43; 12.5 mpk, Day 3): 100%; Weight changes (Percent of starting body weight) (coronavirus OC43; 12.5 mpk, Day 3): 22.55 ± 1.37% of starting body weight; Survival rate (coronavirus OC43; 12.5 mpk, Day 4): 100%; Weight changes (Percent of starting body weight) (coronavirus OC43; 12.5 mpk, Day 4): 30.95 ± 1.19% of starting body weight; Survival rate (coronavirus OC43; 12.5 mpk, Day 5): 100%; Weight changes (Percent of starting body weight) (coronavirus OC43; 12.5 mpk, Day 5): 39.15 ± 1.15% of starting body weight; Survival rate (coronavirus OC43; 12.5 mpk, Day 6): 100%; Weight changes (Percent of starting body weight) (coronavirus OC43; 12.5 mpk, Day 6): 42.61 ± 1.80% of starting body weight; Survival rate (coronavirus OC43; 12.5 mpk, Day 7): 100%; Weight changes (Percent of starting body weight) (coronavirus OC43; 12.5 mpk, Day 7): 49.30 ± 2.16% of starting body weight; Survival rate (coronavirus OC43; 12.5 mpk, Day 8): 100%; Weight changes (Percent of starting body weight) (coronavirus OC43; 12.5 mpk, Day 8): 55.56 ± 2.05% of starting body weight; Survival rate (coronavirus OC43; 12.5 mpk, Day 9): 100%; Weight changes (Percent of starting body weight) (coronavirus OC43; 12.5 mpk, Day 9): 57.80 ± 4.27% of starting body weight; Survival rate (coronavirus OC43; 12.5 mpk, Day 10): 100%; Weight changes (Percent of starting body weight) (coronavirus OC43; 12.5 mpk, Day 10): 60.74 ± 6.34% of starting body weight; Survival rate (coronavirus OC43; 12.5 mpk, Day 11): 100%; Weight changes (Percent of starting body weight) (coronavirus OC43; 12.5 mpk, Day 11): 60.39 ± 8.87% of starting body weight; Survival rate (coronavirus OC43; 12.5 mpk, Day 12): 100%; Weight changes (Percent of starting body weight) (coronavirus OC43; 12.5 mpk, Day 12): 65.10 ± 10.85% of starting body weight; Survival rate (coronavirus OC43; 12.5 mpk, Day 13): 100%; Weight changes (Percent of starting body weight) (coronavirus OC43; 12.5 mpk, Day 13): 76.18 ± 9.69% of starting body weight; Survival rate (coronavirus OC43; 12.5 mpk, Day 14): 100%; Weight changes (Percent of starting body weight) (coronavirus OC43; 12.5 mpk, Day 14): 96.72 ± 10.96% of starting body weight; Survival rate (coronavirus OC43; 25 mpk, Day 1): 100%; Weight changes (Percent of starting body weight) (coronavirus OC43; 25 mpk, Day 1): 6.45 ± 1.94% of starting body weight; Survival rate (coronavirus OC43; 25 mpk, Day 2): 100%; Weight changes (Percent of starting body weight) (coronavirus OC43; 25 mpk, Day 2): 12.35 ± 1.74% of starting body weight; Survival rate (coronavirus OC43; 25 mpk, Day 3): 100%; Weight changes (Percent of starting body weight) (coronavirus OC43; 25 mpk, Day 3): 22.61 ± 2.41% of starting body weight; Survival rate (coronavirus OC43; 25 mpk, Day 4): 100%; Weight changes (Percent of starting body weight) (coronavirus OC43; 25 mpk, Day 4): 28.78 ± 2.69% of starting body weight; Survival rate (coronavirus OC43; 25 mpk, Day 5): 100%; Weight changes (Percent of starting body weight) (coronavirus OC43; 25 mpk, Day 5): 34.72 ± 2.23% of starting body weight; Survival rate (coronavirus OC43; 25 mpk, Day 6): 100%; Weight changes (Percent of starting body weight) (coronavirus OC43; 25 mpk, Day 6): 39.95 ± 2.01% of starting body weight; Survival rate (coronavirus OC43; 25 mpk, Day 7): 100%; Weight changes (Percent of starting body weight) (coronavirus OC43; 25 mpk, Day 7): 45.35 ± 2.00% of starting body weight; Survival rate (coronavirus OC43; 25 mpk, Day 8): 100%; Weight changes (Percent of starting body weight) (coronavirus OC43; 25 mpk, Day 8): 49.97 ± 1.91% of starting body weight; Survival rate (coronavirus OC43; 25 mpk, Day 9): 100%; Weight changes (Percent of starting body weight) (coronavirus OC43; 25 mpk, Day 9): 55.69 ± 2.31% of starting body weight; Survival rate (coronavirus OC43; 25 mpk, Day 10): 100%; Weight changes (Percent of starting body weight) (coronavirus OC43; 25 mpk, Day 10): 62.00 ± 2.26% of starting body weight; Survival rate (coronavirus OC43; 25 mpk, Day 11): 100%; Weight changes (Percent of starting body weight) (coronavirus OC43; 25 mpk, Day 11): 72.13 ± 3.02% of starting body weight; Survival rate (coronavirus OC43; 25 mpk, Day 12): 100%; Weight changes (Percent of starting body weight) (coronavirus OC43; 25 mpk, Day 12): 87.49 ± 3.63% of starting body weight; Survival rate (coronavirus OC43; 25 mpk, Day 13): 100%; Weight changes (Percent of starting body weight) (coronavirus OC43; 25 mpk, Day 13): 95.42 ± 4.90% of starting body weight; Survival rate (coronavirus OC43; 25 mpk, Day 14): 100%; Weight changes (Percent of starting body weight) (coronavirus OC43; 25 mpk, Day 14): 118.37 ± 5.15% of starting body weight; PPB_Unbound (%) (plasma protein [4]): 24.3%; Vd (in vivo [5]; iv, 0.1 mg/kg): 2.5 L/kg; clearance (in vivo [5]; iv, 0.1 mg/kg): 0.432 L/h/kg; half-life (in vivo [5]; iv, 0.1 mg/kg): 6.2 h; AUC (in vivo [5]; iv, 0.1 mg/kg, AUC): 504 nM·h; AUC (in vivo [5]; iv, 0.1 mg/kg, AUCfree): 120 nM·h; Cmax (in vivo [5]; po, 0.5 mg/kg): 0.27 µM; Tmax (in vivo [5]; po, 0.5 mg/kg): 3 h; bioavailability (in vivo [5]; po, 0.5 mg/kg): 121%; half-life (in vivo [5]; po, 0.5 mg/kg): 9.5 h; AUC (in vivo [5]; po, 0.5 mg/kg, AUC): 3100 nM·h; AUC (in vivo [5]; po, 0.5 mg/kg, AUCfree): 740 nM·h
